Experimental data reported in patent US20110189157A1, “USE OF HUMAN HYALURONIDASES FOR AXONAL REGROWTH” (priority 2008, published 2011).

Key:
[1] = Chondroitinase activity assay: cleavage of biotin-labelled CS in solution, intact substrate detected on protamine-coated microplate; conditions: 0.8-100 milliunits enzyme; biotin-CS 0.01 μg/ml; 37° C., 1 h; FIG. 3
Protocol: A solid phase, for example a microtiter plate, is coated with protamine by incubation of 100 μl/well of a 0.003% solution of protamine sulfate at 37° C. for 24 hours. Thereafter, plates were washed 3 times with A dest. and stored in the dark.
Plates were washed 3 times with buffer (PBS/0.01% Tween 20) and Avidin-POD (1 μg/ml in PBS/5% BSA) was added.
After 15 min plates were washed 5 times with PBS and 100 μl OPD-solution (0.667 mg/ml) was added.
After 15 min the reaction was stopped by addition of 100 μl of 0.5 Mol H2SO4. OD was measured at 490 nm using a microplate reader.
The enzyme reaction is carried out by mixing 50 μl of biotin-labelled CS at 0.01 μg/ml with increasing amounts of chondroitinase ABC, e.g. 0.8-100 nano-units of chondroitinase ABC. Samples were brought to a volume of 100 μl by addition of PBS.
This mixture is incubated at 37° C. for 1 h. Thereafter the enzyme was inactivated by heating at 100° C. for 10 min.
Samples (85 μl of the samples) were transferred to the CS-BP (protamine)-coated microplate and incubated for 1 hour at room temperature.
The enzyme reaction is carried out by mixing 50 μl of biotin-labelled CS at 0.01 μg/ml with increasing amounts of hyaluronidase, e.g. 0.8-100 milliunits of hyaluronidase. Samples were brought to a volume of 100 μl by addition of PBS.
This mixture is incubated at 37° C. for 1 h. […]

[2] = test system: damaged adult nigrostriatal tract; conditions: rat, cited from earlier work

Substance | degradation of biotin-labelled chondroitin sulfate (decrease in signal, OD 490 nm) [1] | persistence of active enzyme in the injured CNS ([2]; in vivo) | axon regeneration ([2]; single dose injected adjacent to damaged nigrostriatal tract)
hyaluronidase | dose-dependent degradation | – | –
chondroitinase ABC | – | at least 10 days | promoted axon regeneration
